According to ChEMBL document CHEMBL4673373, “Discovery and optimization of substituted oxalamides as novel heme-displacing IDO1 inhibitors” (Bioorg Med Chem Lett, 2021):

What was measured:
[1] = target: T1, Indoleamine 2,3-dioxygenase 1 (Homo sapiens, UniProt P14902); test: Inhibition of IDO1 in human SKOV3 cells; type: cell-based, SK-OV-3
Target sequence in this assay (P14902 whole entry): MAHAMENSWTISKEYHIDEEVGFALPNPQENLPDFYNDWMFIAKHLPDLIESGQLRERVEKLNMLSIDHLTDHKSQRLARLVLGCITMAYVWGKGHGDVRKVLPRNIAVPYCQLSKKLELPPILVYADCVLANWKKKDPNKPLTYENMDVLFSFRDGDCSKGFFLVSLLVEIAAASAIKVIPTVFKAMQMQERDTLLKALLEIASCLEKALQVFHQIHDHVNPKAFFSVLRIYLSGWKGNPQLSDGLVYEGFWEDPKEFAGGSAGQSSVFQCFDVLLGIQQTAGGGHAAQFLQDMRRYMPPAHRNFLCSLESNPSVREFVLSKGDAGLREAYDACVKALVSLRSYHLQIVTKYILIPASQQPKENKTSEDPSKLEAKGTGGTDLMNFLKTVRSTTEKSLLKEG

[2] = target: T1, Indoleamine 2,3-dioxygenase 1; test: Inhibition of IDO1 (unknown origin) by enzymatic assay
Target sequence in this assay (P14902 whole entry): as above

[3] = target: T1, Indoleamine 2,3-dioxygenase 1; test: Binding affinity to IDO1 (unknown origin) assessed as change in melting temperature at 5 uM by thermal shift assay
Target sequence in this assay (P14902 whole entry, looked up): as the sequence (P14902 whole entry) above

[4] = target: Tryptophan 2,3-dioxygenase (Homo sapiens, UniProt P48775); test: Inhibition of TDO in HEK cells; type: cell-based
Sequence of Tryptophan 2,3-dioxygenase (P48775 whole entry): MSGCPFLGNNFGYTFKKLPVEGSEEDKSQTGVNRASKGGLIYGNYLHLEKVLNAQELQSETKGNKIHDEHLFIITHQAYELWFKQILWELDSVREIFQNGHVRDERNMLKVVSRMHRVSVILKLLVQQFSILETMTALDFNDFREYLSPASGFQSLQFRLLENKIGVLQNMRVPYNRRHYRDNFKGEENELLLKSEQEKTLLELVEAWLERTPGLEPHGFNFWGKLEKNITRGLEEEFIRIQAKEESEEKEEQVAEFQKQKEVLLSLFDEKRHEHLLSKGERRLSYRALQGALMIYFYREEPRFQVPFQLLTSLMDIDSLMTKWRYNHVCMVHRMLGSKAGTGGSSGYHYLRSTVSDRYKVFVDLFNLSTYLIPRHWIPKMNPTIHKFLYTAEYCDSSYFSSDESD

[5] = Metabolic stability in human liver microsomes assessed as intrinsic clearance; type: ADME, Microsome; conditions: read-out: CLH
[6] = Metabolic stability in mouse liver microsomes assessed as intrinsic clearance; type: ADME, Microsome; conditions: read-out: CLH
hERG (KCNH2) [7] = target: T2, hERG (KCNH2) (Homo sapiens, UniProt Q12809); test: Inhibition of human ERG at 10 uM relative to control
T2 sequence (Q12809 whole entry): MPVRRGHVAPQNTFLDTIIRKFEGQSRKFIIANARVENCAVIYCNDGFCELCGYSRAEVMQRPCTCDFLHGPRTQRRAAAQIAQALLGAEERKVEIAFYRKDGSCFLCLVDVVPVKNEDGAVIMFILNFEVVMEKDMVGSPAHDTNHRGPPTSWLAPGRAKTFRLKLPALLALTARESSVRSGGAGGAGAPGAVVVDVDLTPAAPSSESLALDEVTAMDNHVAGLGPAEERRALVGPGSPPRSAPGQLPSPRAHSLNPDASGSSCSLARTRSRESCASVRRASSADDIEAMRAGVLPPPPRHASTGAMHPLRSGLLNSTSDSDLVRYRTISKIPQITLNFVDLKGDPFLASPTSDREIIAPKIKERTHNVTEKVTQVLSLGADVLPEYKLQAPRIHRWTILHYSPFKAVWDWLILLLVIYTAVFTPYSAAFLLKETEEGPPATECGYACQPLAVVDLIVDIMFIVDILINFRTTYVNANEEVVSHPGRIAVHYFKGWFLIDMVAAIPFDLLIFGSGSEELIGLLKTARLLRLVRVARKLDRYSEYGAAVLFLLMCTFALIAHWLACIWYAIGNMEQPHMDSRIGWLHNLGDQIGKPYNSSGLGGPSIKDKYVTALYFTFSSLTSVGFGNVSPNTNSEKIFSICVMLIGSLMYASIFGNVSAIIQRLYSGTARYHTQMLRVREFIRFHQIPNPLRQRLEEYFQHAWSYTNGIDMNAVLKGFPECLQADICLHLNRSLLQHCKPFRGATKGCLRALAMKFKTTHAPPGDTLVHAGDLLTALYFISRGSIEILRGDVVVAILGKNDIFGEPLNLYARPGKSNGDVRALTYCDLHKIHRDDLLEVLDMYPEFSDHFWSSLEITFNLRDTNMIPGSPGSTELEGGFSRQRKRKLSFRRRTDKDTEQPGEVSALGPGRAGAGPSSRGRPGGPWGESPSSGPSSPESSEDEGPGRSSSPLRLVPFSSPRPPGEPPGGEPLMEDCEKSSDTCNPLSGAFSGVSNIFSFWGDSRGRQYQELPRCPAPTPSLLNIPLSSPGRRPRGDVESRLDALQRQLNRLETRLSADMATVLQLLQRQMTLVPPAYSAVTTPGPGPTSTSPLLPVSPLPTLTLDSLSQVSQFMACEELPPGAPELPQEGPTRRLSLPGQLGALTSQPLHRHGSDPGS

Cytochrome P450 2D6 = Cytochrome P450 2D6 (Homo sapiens, UniProt P10635); test: Inhibition of CYP2D6 (unknown origin); type: ADME
Sequence of Cytochrome P450 2D6 (P10635 whole entry): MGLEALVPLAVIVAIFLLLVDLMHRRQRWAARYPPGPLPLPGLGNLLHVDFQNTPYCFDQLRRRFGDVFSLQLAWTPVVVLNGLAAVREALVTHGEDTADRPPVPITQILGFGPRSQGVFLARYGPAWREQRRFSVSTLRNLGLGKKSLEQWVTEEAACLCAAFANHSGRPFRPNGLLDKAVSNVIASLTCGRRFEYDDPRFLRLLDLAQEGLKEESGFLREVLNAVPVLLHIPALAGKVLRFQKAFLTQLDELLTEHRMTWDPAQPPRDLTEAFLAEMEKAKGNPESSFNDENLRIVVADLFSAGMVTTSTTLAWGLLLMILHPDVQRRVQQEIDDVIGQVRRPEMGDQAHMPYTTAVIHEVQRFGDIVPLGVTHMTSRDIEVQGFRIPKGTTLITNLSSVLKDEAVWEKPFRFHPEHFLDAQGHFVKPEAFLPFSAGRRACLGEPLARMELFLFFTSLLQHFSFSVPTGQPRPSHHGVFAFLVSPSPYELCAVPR

Cytochrome P450 2C9 = Cytochrome P450 2C9 (Homo sapiens, UniProt P11712); test: Inhibition of CYP2C9 (unknown origin); type: ADME
Sequence of Cytochrome P450 2C9 (P11712 whole entry): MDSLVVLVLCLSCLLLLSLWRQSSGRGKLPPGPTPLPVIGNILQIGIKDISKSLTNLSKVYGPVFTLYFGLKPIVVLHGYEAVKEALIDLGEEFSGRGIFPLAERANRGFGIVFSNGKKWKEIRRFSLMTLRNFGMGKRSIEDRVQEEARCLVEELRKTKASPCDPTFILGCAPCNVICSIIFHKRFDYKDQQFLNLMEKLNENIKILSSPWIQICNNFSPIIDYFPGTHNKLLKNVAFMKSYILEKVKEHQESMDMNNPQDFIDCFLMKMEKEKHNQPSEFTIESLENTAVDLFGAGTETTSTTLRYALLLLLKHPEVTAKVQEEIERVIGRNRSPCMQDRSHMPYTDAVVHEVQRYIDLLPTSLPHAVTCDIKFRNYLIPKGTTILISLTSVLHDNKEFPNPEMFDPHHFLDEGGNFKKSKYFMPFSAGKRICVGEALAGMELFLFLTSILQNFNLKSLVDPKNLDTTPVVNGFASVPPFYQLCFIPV

hERG (KCNH2) [8] = target: T2, hERG (KCNH2); test: Inhibition of human ERG assessed as reduction in channel tail current at 10 uM by patch clamp assay relative to control
[9] = Plasma protein binding in mouse; type: ADME, cell-free; conditions: read-out: PPB (converted)
[10] = Half life in mouse at 10 mg/kg, po; type: ADME, organism-based; conditions: in vivo
Cytochrome P450 2C8 = target: T3, Cytochrome P450 2C8 (Homo sapiens, UniProt P10632); test: Inhibition of CYP2C8 (unknown origin); type: ADME
T3 sequence (P10632 whole entry): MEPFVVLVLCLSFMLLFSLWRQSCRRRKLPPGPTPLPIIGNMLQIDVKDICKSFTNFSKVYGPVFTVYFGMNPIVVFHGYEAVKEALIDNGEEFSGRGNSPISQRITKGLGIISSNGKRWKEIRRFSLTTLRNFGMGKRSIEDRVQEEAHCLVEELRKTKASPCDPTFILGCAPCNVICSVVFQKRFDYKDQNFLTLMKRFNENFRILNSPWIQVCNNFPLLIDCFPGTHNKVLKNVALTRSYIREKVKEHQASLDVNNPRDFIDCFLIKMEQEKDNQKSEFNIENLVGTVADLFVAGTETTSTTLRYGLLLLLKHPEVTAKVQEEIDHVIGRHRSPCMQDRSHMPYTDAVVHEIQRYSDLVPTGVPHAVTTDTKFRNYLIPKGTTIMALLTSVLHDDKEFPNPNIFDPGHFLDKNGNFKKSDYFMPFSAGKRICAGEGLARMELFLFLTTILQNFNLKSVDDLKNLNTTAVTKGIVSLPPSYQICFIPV

[11] = Cmax in mouse at 10 mg/kg, po; type: ADME, organism-based; design: route oral, dose 10 mg/kg; conditions: in vivo
[12] = AUC(0 to 8 hrs) in mouse at 10 mg/kg, po; type: ADME, organism-based; design: route oral, time 8 hrs, dose 10 mg/kg; conditions: in vivo
[13] = Plasma protein binding in human; type: ADME, cell-free; conditions: read-out: PPB (converted)
[14] = target: T1, Indoleamine 2,3-dioxygenase 1; test: Inhibition of IDO1 in human whole blood; type: tissue-based
Target sequence in this assay (P14902 whole entry): as the sequence (P14902 whole entry) above

| SMILES | IC50 [1] | IC50 [4] | microsomal CLint [5] | microsomal CLint [6] | inhibition at 10 µM (hERG (KCNH2) [7]) | further results |
| --- | --- | --- | --- | --- | --- | --- |
| O=C(Nc1ccc(F)c(Cl)c1)C(=O)N1CCC(c2ccccc2)CC1 | 1.8 µM | – | – | – | – | IC50 [2]: > 60 µM; ΔTm [3]: 1 °C |
| O=C(Nc1ccc(Cl)cc1)C(=O)N1CC[C@@H](c2ccnc3ccc(F)cc23)[C@H](O)C1 (stereo in doubt) | 0.05 µM | 15.3 µM | 5 µL/min/mg | 18 µL/min/mg | 10% | – |
| CC1(C)CN(C(=O)C(=O)Nc2ccc(Cl)cc2)CCC1c1ccnc2ccc(F)cc12 (racemic) | 0.023 µM | 4.5 µM | 28.8 µL/min/mg | 72.9 µL/min/mg | 71% | – |
| O=C(Nc1ccc(Cl)cc1)C(=O)N1CCC(c2ccnc3ccc(F)cc23)CC1 | – | 6.9 µM | 9 µL/min/mg | 97 µL/min/mg | 64% | IC50 (Cytochrome P450 2D6): > 10 µM; IC50 (Cytochrome P450 2C9): 6.1 µM; inhibition at 10 µM (hERG (KCNH2) [8]): 70%; fraction unbound [9]: 0.011; half-life [10]: 1.8 h; IC50 (Cytochrome P450 2C8): 4.7 µM; Cmax [11]: 5.1 µM; AUC(0-t) at 8 h [12]: 19.3 µM·h; ΔTm [3]: 14 °C; fraction unbound [13]: 0.003 |
| O=C(Nc1ccc(Cl)cc1)C(=O)N1CCC2(CC1)COc1cc(C(F)F)ccc12 | 0.03 µM | 30 µM | 20 µL/min/mg | 167 µL/min/mg | 71% | – |
| CS(=O)(=O)NCCCNC(=O)/C(=N/O)Nc1ccc(F)c(Br)c1 | 0.34 µM | – | – | – | – | IC50 [2]: 5 µM |
| O=C(Nc1ccc(C(F)F)cc1)C(=O)N1CCC(c2ccnc3ccc(F)cc23)CC1 | 0.021 µM | 5.8 µM | 17 µL/min/mg | 76 µL/min/mg | – | – |
| O=C(Nc1ccc(Cl)cn1)C(=O)N1CCC(c2ccnc3ccc(F)cc23)CC1 | 0.07 µM | 5.9 µM | 23 µL/min/mg | 112 µL/min/mg | – | – |
| O=C(Nc1ccc(Cl)cc1)C(=O)N1CCC(c2ccnc3ccc(F)cc23)C(F)(F)C1 (racemic) | 0.009 µM | 6.3 µM | 11.6 µL/min/mg | 52 µL/min/mg | 15% | – |
| O=C(Nc1ccc(Cl)cc1)C(=O)N1CC[C@@H](c2ccnc3ccc(F)cc23)[C@@H](O)C1 (stereo in doubt) | 3 µM | 37 µM | – | – | – | – |
| O=C(Nc1ccc(Cl)cn1)C(=O)N1CCC(c2cccc(Cl)c2Cl)CC1 | 0.245 µM | – | 40 µL/min/mg | 77 µL/min/mg | – | – |
| N#Cc1ccc2nccc(C3CCN(C(=O)C(=O)Nc4ccc(Cl)cc4)CC3)c2c1 | 0.118 µM | 6.1 µM | – | – | – | – |
| O=C(Nc1ccc(Cl)cc1F)C(=O)N1CCC(c2ccnc3ccc(F)cc23)CC1 | 0.007 µM | 6.7 µM | 10 µL/min/mg | 108 µL/min/mg | – | – |
| C[C@@H](C(=O)Nc1ccc(Cl)cc1)[C@H]1CC[C@@H](c2ccnc3ccc(F)cc32)CC1 | – | – | 21.3 µL/min/mg | 386 µL/min/mg | – | AUC(0-t) at 8 h [12]: 9.3 µM·h |
| O=C(Nc1ccc(Cl)cn1)C(=O)N1CCC(c2ccnc3ccnn23)CC1 | 0.433 µM | – | – | – | – | – |
| O=C(Nc1ccc(Cl)cc1)C(=O)N1CCC2(CC1)COc1cc(C(F)(F)F)ccc12 | – | 21 µM | < 1 µL/min/mg | 14 µL/min/mg | 86% | – |

| SMILES | IC50 [1] | IC50 [4] | microsomal CLint [5] | microsomal CLint [6] | inhibition at 10 µM (hERG (KCNH2) [7]) | further results |
| --- | --- | --- | --- | --- | --- | --- |
| O=C(Nc1ccc(Cl)cc1)C(=O)N1CC[C@H](c2ccnc3ccc(F)cc23)[C@@H](O)C1 (stereo in doubt) | 0.0061 µM | 14 µM | 4 µL/min/mg | 17 µL/min/mg | 18% | IC50 [14]: 0.33 µM; inhibition at 10 µM (hERG (KCNH2) [8]): 34%; fraction unbound [9]: 0.02; half-life [10]: 1.4 h; IC50 (Cytochrome P450 2C8): 9.5 µM; Cmax [11]: 10 µM; AUC(0-t) at 8 h [12]: 27.1 µM·h; ΔTm [3]: 13 °C; fraction unbound [13]: 0.011 |
| O=C(Nc1ccc(Cl)cn1)C(=O)N1CCC2(CC1)COc1cc(C(F)(F)F)ccc12 | 0.073 µM | 6.4 µM | 6 µL/min/mg | 63 µL/min/mg | – | – |
| O=C(Nc1ccc(Cl)cc1)C(=O)N1CCC(c2ccnc3ccc(Cl)cc23)CC1 | 0.019 µM | 2.5 µM | 11 µL/min/mg | 72 µL/min/mg | – | – |
| O=C(Nc1ccc(Cl)cc1)C(=O)N1CCC(c2ccnc3cc(F)ccc23)CC1 | 0.019 µM | – | 26 µL/min/mg | 55 µL/min/mg | 85% | – |
| NS(=O)(=O)NCCCNC(=O)/C(=N/O)Nc1ccc(F)c(Cl)c1 | 1.2 µM | – | – | – | – | IC50 [2]: 10.3 µM |
| O=C(Nc1ccc(Cl)cc1F)C(=O)N1CCC=C(c2ccnc3ccc(F)cc23)CC1 | 0.005 µM | 16 µM | 98 µL/min/mg | 254 µL/min/mg | – | – |
| O=C(Nc1ccc(C(F)(F)F)cc1)C(=O)N1CCC(c2ccnc3ccc(F)cc23)CC1 | 0.09 µM | 9.5 µM | 5.5 µL/min/mg | 16 µL/min/mg | 77% | – |
| N#Cc1ccc(NC(=O)C(=O)N2CCC(c3ccnc4ccc(F)cc34)CC2)cc1 | 0.036 µM | 5.5 µM | 11 µL/min/mg | 28 µL/min/mg | 61% | – |
| O=C(/C(=N/O)Nc1ccc(F)c(Cl)c1)N1CCC(c2ccccc2)CC1 | 14 µM | – | – | – | – | IC50 [2]: > 60 µM |
| O=C(Nc1ccc(Cl)cc1)C(=O)N1CCCC2(CC1)COc1cc(C(F)(F)F)ccc12 (centres undefined) | 0.7 µM | 37 µM | – | – | – | – |
| O=C(Nc1ccc(Cl)cc1)C(=O)N1CCC(c2ccccc2)CC1 | 0.09 µM | – | – | – | – | IC50 [2]: > 60 µM; ΔTm [3]: 12 °C |
| O=C(Nc1ccc(Cl)cc1F)C(=O)N1CCCC(c2ccnc3ccc(F)cc23)CC1 (racemic) | 0.008 µM | 5.9 µM | 108 µL/min/mg | 202 µL/min/mg | 66% | – |
| O=C(Nc1ccc(Cl)cn1)C(=O)N1CCC(c2ccnc(C(F)(F)F)c2Cl)CC1 | 0.301 µM | 22 µM | 3.5 µL/min/mg | 36 µL/min/mg | – | – |
| NC(=O)/C(=N/O)Nc1ccc(F)c(Cl)c1 | 24 µM | – | – | – | – | IC50 [2]: 78 µM |
| O=C(Nc1ccc(Cl)cc1)C(=O)N1CC[C@H](c2ccnc3ccc(F)cc23)[C@H](O)C1 (stereo in doubt) | 0.11 µM | 17.2 µM | – | – | – | – |
| O=C(Nc1ccc(Cl)cn1)C(=O)N1CCC2(CC1)COc1ccccc12 | 0.49 µM | – | – | – | – | – |
